Laboratory results taken from patent US20230146455A1, “TREATMENT OF INFLAMMATORY DISEASES WITH PEPTIDES AND PHARMACEUTICAL COMPOSITIONS” (Yuyu Pharma, Inc., priority 2020, published 2023).
Values joined by “and” are separate entries in the source; they are usually repeats but may differ in a detail not shown here. Identical values can stand only once. Where a SMILES comes first, the peptide text is derived from it. [ ]: non-standard residue; d: D form. Hyp = O=C(O)[C@@H]1C[C@@H](O)CN1

Columns and labels:
IL-10 = test: Example 9 Luminex, LPS hPBMCs: IL-10; type: cell-based, human; conditions: IL-10
Protocol: (§1) Treatment Human PBMCs were pretreated with YY-101, YDE-011 and YDE-043 or reference compound; Xiidra® at various concentration (ranging from 1 nM to 100 uM) for 2 h before stimulation. An equal volume of 0.5% DMSO was used as a vehicle control. Then, the cells were treated with LPS at 5 ug/ml. The supernatants from treated cells were harvested at 24 h and placed in a 96 well for Luminex cytokine & chemokine profiling using a Luminex 200 multiplex assay (Luminex; R&D system, USA).
(§2) The main study arm with triplicate wells per group in a 24-well plate: • 1. Blank • 2. PBMC: 0.5% DMSO • 3. PBMC+LPS (5 ug/ml) • 4. PBMC+YY-101 100 uM • 5. PBMC+YY-101 10 uM • 6. PBMC+YY-101 1 uM • 7. PBMC+YY-101 0.1 uM • 8. PBMC+YY-101 0.01 uM • 9. PBMC+LPS (5 ug/ml)+Xiidra®100 uM • 10. PBMC+LPS (5 ug/ml)+Xiidra® 10 uM • 11. PBMC+LPS (5 ug/ml)+Xiidra® 1 uM • 12. PBMC+LPS (5 ug/ml)+Xiidra®0.1 uM • 13. PBMC+LPS (5 ug/ml)+Xiidra®0.01 uM • 14. PBMC+LPS (5 ug/ml)+Xiidra®0.001 uM • 15. PBMC+LPS (5 ug/ml)+YY-101 100 uM • 16. PBMC+LPS (5 ug/ml)+YY-101 10 uM • 17. PBMC+LPS (5 ug/ml)+YY-101 1 uM • 18. PBMC+LPS (5 ug/ml)+YY-101 0.1 uM • 19. PBMC+LPS (5 ug/ml)+YY-101 0.01 uM • 20. PBMC+LPS (5 ug/ml)+YY-101 0.001 uM • 21. PBMC+LPS (5 ug/ml)+YDE-011 100 uM • 22. PBMC+LPS (5 ug/ml)+YDE-011 10 uM • 23. PBMC+LPS (5 ug/ml)+YDE-011 1 uM • 24. PBMC+LPS (5 ug/ml)+YDE-011 0.1 uM • 25. PBMC+LPS (5 ug/ml)+YDE-011 0.01 uM • 26. PBMC+LPS (5 ug/ml)+YDE-011 0.001 uM • 27. PBMC+LPS (5 ug/ml)+YDE-043 100 uM • 28. PBMC+LPS (5 ug/ml)+YDE-043 10 uM • 29. PBMC+LPS (5 ug/ml)+YDE-043 1 uM • 30. PBMC+LPS (5 ug/ml)+YDE-043 0.1 uM • 31. PBMC+LPS (5 ug/ml)+YDE-043 0.01 uM • 32. PBMC+LPS (5 ug/ml)+YDE-043 0.001 uM
(§3) Multiplex assay was used to measure 30 cytokines and chemokines. The 1:2, 1:10 and 1:200 diluted cell supernatant and serial dilution of the standard were dispensed into a 96 well plate at 50 ul/well. Then, the pre-mixed cocktail of antibody-coated magnetic beads was dispensed at 50 ul/well and incubated at room temperature for 2 h in a horizontal orbital microplate shaker at 800±500 rpm. The beads were washed using a magnetic device to prevent loss. The biotin-antibody was dispensed in 50 ul of each well and incubated at room temperature for 1 h in a shaker at 800±500 rpm. After washing, streptavidin-PE was added at 50 ul/well and incubated at room temperature for 30 min in a shaker under the same conditions. Finally, after washing, wash buffer (100 ul/well) was added to the plate and incubated in a shaker for 2 min. The Luminex™ 200 setting were set according to the manufacturer's protocol. The data was calculated with a standard five-parameter logistic nonlinear regression analysis of the data (xPonent software 4.2, USA). The levels of cytokine/chemokine are normalized to the live cell counts (1×10^5 cells/mL) and presented as concentrations per mL (pg/mL or ng/mL).

MMP-9 = test: Example 9 Luminex, LPS hPBMCs: MMP-9; type: cell-based, human
Protocol: as §1, §2, §3

[1] = PBMC + LPS(5 ug/ml) + test article 0.001 uM, Mean
[2] = PBMC + LPS(5 ug/ml) + test article 0.001 uM, single replicates
[3] = PBMC + LPS(5 ug/ml) + test article 0.01 uM, Mean
[4] = PBMC + LPS(5 ug/ml) + test article 0.01 uM, single replicates
[5] = PBMC + LPS(5 ug/ml) + test article 0.1 uM, Mean
[6] = PBMC + LPS(5 ug/ml) + test article 0.1 uM, single replicates
[7] = PBMC + LPS(5 ug/ml) + test article 1 uM, Mean
[8] = PBMC + LPS(5 ug/ml) + test article 1 uM, single replicates
[9] = PBMC + LPS(5 ug/ml) + test article 10 uM, Mean
[10] = PBMC + LPS(5 ug/ml) + test article 10 uM, single replicates
[11] = PBMC + LPS(5 ug/ml) + test article 100 uM, Mean
[12] = PBMC + LPS(5 ug/ml) + test article 100 uM, single replicates
[13] = PBMC + LPS(5 ug/ml) + 0.001 uM, Mean
[14] = PBMC + LPS(5 ug/ml) + 0.001 uM, single replicates
[15] = PBMC + LPS(5 ug/ml) + 0.01 uM, Mean
[16] = PBMC + LPS(5 ug/ml) + 0.01 uM, single replicates
[17] = PBMC + LPS(5 ug/ml) + 0.1 uM, Mean
[18] = PBMC + LPS(5 ug/ml) + 0.1 uM, single replicates
[19] = PBMC + LPS(5 ug/ml) + 1 uM, Mean
[20] = PBMC + LPS(5 ug/ml) + 1 uM, single replicates
[21] = PBMC + LPS(5 ug/ml) + 10 uM, Mean
[22] = PBMC + LPS(5 ug/ml) + 10 uM, single replicates
[23] = PBMC + LPS(5 ug/ml) + 100 uM, Mean
[24] = PBMC + LPS(5 ug/ml) + 100 uM, single replicates

CC(C)C[C@H](NC(=O)[C@H](CCC(N)=O)NC(=O)CNC(=O)[C@@H]1C[C@@H](O)CN1)C(=O)NCC(=O)O [YDE-043] (H-[Hyp]GQLG-OH; N-terminus and C-terminus assumed)
Concentration (IL-10; [1]): 305.6 pg/mL
conc/live cell (pg/10^5) (IL-10; [1]): 62.5 pg/10^5
Concentration (IL-10; [2]): 335.7 pg/mL and 298.3 pg/mL and 282.9 pg/mL
conc/live cell (pg/10^5) (IL-10; [2]): 76.3 pg/10^5 and 49.7 pg/10^5 and 61.5 pg/10^5
Concentration (IL-10; [3]): 344.9 pg/mL
conc/live cell (pg/10^5) (IL-10; [3]): 65.7 pg/10^5
Concentration (IL-10; [4]): 344.9 pg/mL and 362.6 pg/mL and 327.1 pg/mL
conc/live cell (pg/10^5) (IL-10; [4]): 76.7 pg/10^5 and 54.9 pg/10^5 and 65.4 pg/10^5
Concentration (IL-10; [5]): 322.4 pg/mL
conc/live cell (pg/10^5) (IL-10; [5]): 59.9 pg/10^5
Concentration (IL-10; [6]): 330.0 pg/mL and 312.8 pg/mL and 324.3 pg/mL
conc/live cell (pg/10^5) (IL-10; [6]): 66.0 pg/10^5 and 55.9 pg/10^5 and 57.9 pg/10^5
Concentration (IL-10; [7]): 327.6 pg/mL
conc/live cell (pg/10^5) (IL-10; [7]): 62.1 pg/10^5
Concentration (IL-10; [8]): 328.6 pg/mL and 312.8 pg/mL and 341.4 pg/mL
conc/live cell (pg/10^5) (IL-10; [8]): 56.7 pg/10^5 and 65.2 pg/10^5 and 64.4 pg/10^5
Concentration (IL-10; [9]): 297.7 pg/mL
conc/live cell (pg/10^5) (IL-10; [9]): 55.2 pg/10^5
Concentration (IL-10; [10]): 318.5 pg/mL and 277.0 pg/mL and 297.5 pg/mL
conc/live cell (pg/10^5) (IL-10; [10]): 61.3 pg/10^5 and 51.3 pg/10^5 and 53.1 pg/10^5
Concentration (IL-10; [11]): 109.4 pg/mL
conc/live cell (pg/10^5) (IL-10; [11]): 17.4 pg/10^5
Concentration (IL-10; [12]): 106.7 pg/mL and 112.1 pg/mL
conc/live cell (pg/10^5) (IL-10; [12]): 17.2 pg/10^5 and 17.5 pg/10^5
MMP-9 Concentration (MMP-9; [13]): 222.6 pg/mL
MMP-9 conc/live cell (MMP-9; [13]): 45.0 pg/10^5
MMP-9 Concentration (MMP-9; [14]): 170.9 pg/mL and 234.0 pg/mL and 262.8 pg/mL
MMP-9 conc/live cell (MMP-9; [14]): 38.8 pg/10^5 and 39.0 pg/10^5 and 57.1 pg/10^5
MMP-9 Concentration (MMP-9; [15]): 186.3 pg/mL
MMP-9 conc/live cell (MMP-9; [15]): 35.6 pg/10^5
MMP-9 Concentration (MMP-9; [16]): 180.2 pg/mL and 186.3 pg/mL and 192.4 pg/mL
MMP-9 conc/live cell (MMP-9; [16]): 40.0 pg/10^5 and 28.2 pg/10^5 and 38.5 pg/10^5
MMP-9 Concentration (MMP-9; [17]): 173.9 pg/mL
MMP-9 conc/live cell (MMP-9; [17]): 32.4 pg/10^5
MMP-9 Concentration (MMP-9; [18]): 192.4 pg/mL and 155.2 pg/mL and 174.0 pg/mL
MMP-9 conc/live cell (MMP-9; [18]): 38.5 pg/10^5 and 27.7 pg/10^5 and 31.1 pg/10^5
MMP-9 Concentration (MMP-9; [19]): 178.0 pg/mL
MMP-9 conc/live cell (MMP-9; [19]): 33.5 pg/10^5
MMP-9 Concentration (MMP-9; [20]): 198.5 pg/mL and 155.2 pg/mL and 180.2 pg/mL
MMP-9 conc/live cell (MMP-9; [20]): 34.2 pg/10^5 and 32.3 pg/10^5 and 34.0 pg/10^5
MMP-9 Concentration (MMP-9; [21]): 189.3 pg/mL
MMP-9 conc/live cell (MMP-9; [21]): 35.1 pg/10^5
MMP-9 Concentration (MMP-9; [22]): 198.5 pg/mL and 192.4 pg/mL and 177.1 pg/mL
MMP-9 conc/live cell (MMP-9; [22]): 38.2 pg/10^5 and 35.6 pg/10^5 and 31.6 pg/10^5
MMP-9 Concentration (MMP-9; [23]): 139.0 pg/mL
MMP-9 conc/live cell (MMP-9; [23]): 22.1 pg/10^5
MMP-9 Concentration (MMP-9; [24]): 148.8 pg/mL and 129.2 pg/mL
MMP-9 conc/live cell (MMP-9; [24]): 24.0 pg/10^5 and 20.2 pg/10^5
